Source: the NIST ThermoML archive (doi:10.1021/je060411g)

Assay: molar heat capacity at constant pressure
Conditions: 101.33 kPa

CC(C)(C)CO [2,2-dimethyl-1-propanol]
Conditions | molar heat capacity at constant pressure [J/K/mol]
155.06 K, Crystal 2, Vacuum adiabatic calorimetry | 99.89
157.04 K, Crystal 2, Vacuum adiabatic calorimetry | 100.86
159.01 K, Crystal 2, Vacuum adiabatic calorimetry | 101.85
160 K, Crystal 2 | 102.4
160.99 K, Crystal 2, Vacuum adiabatic calorimetry | 102.94
162.97 K, Crystal 2, Vacuum adiabatic calorimetry | 104.04
164.94 K, Crystal 2, Vacuum adiabatic calorimetry | 104.98
166.92 K, Crystal 2, Vacuum adiabatic calorimetry | 106.04
168.9 K, Crystal 2, Vacuum adiabatic calorimetry | 107.14
170 K, Crystal 2 | 107.8
170.88 K, Crystal 2, Vacuum adiabatic calorimetry | 108.23
172.86 K, Crystal 2, Vacuum adiabatic calorimetry | 109.18
174.83 K, Crystal 2, Vacuum adiabatic calorimetry | 110.28
176.81 K, Crystal 2, Vacuum adiabatic calorimetry | 111.23
178.79 K, Crystal 2, Vacuum adiabatic calorimetry | 112.41
180 K, Crystal 2 | 113.1
180.77 K, Crystal 2, Vacuum adiabatic calorimetry | 113.61
182.75 K, Crystal 2, Vacuum adiabatic calorimetry | 115.04
184.73 K, Crystal 2, Vacuum adiabatic calorimetry | 115.99
186.72 K, Crystal 2, Vacuum adiabatic calorimetry | 117.16
188.7 K, Crystal 2, Vacuum adiabatic calorimetry | 118.27
190 K, Crystal 2 | 119.2
190.69 K, Crystal 2, Vacuum adiabatic calorimetry | 119.62
192.68 K, Crystal 2, Vacuum adiabatic calorimetry | 120.83
194.67 K, Crystal 2, Vacuum adiabatic calorimetry | 122.08
196.66 K, Crystal 2, Vacuum adiabatic calorimetry | 123.36
198.66 K, Crystal 2, Vacuum adiabatic calorimetry | 124.74
200 K, Crystal 2 | 125.7
200.66 K, Crystal 2, Vacuum adiabatic calorimetry | 126.14
202.67 K, Crystal 2, Vacuum adiabatic calorimetry | 127.38
204.67 K, Crystal 2, Vacuum adiabatic calorimetry | 128.75
206.68 K, Crystal 2, Vacuum adiabatic calorimetry | 130.08
208.7 K, Crystal 2, Vacuum adiabatic calorimetry | 131.55
210 K, Crystal 2 | 132.5
210.71 K, Crystal 2, Vacuum adiabatic calorimetry | 132.96
212.71 K, Crystal 2, Vacuum adiabatic calorimetry | 134.53
214.72 K, Crystal 2, Vacuum adiabatic calorimetry | 136.27
216.71 K, Crystal 2, Vacuum adiabatic calorimetry | 138.22
220 K, Crystal 2 | 145
237.42 K, Crystal 1 | 158.16
239.45 K, Crystal 1 | 159.61
240 K, Crystal 1 | 160.1
241.42 K, Crystal 1 | 161.17
243.4 K, Crystal 1 | 162.58
245.38 K, Crystal 1 | 163.87
247.36 K, Crystal 1 | 165.12
249.33 K, Crystal 1 | 166.8
250 K, Crystal 1 | 167.3
251.31 K, Crystal 1 | 168.24
253.28 K, Crystal 1 | 169.62
255.26 K, Crystal 1 | 171.23
257.24 K, Crystal 1 | 172.85
259.21 K, Crystal 1 | 174.64
260 K, Crystal 1 | 175.3
261.18 K, Crystal 1 | 176.19
263.15 K, Crystal 1 | 177.74
265.1 K, Crystal 1 | 179.42
267.05 K, Crystal 1 | 181.32
268.99 K, Crystal 1 | 183.18
270 K, Crystal 1 | 184
270.93 K, Crystal 1 | 184.74
272.86 K, Crystal 1 | 186.95
274.77 K, Crystal 1 | 188.7
276.68 K, Crystal 1 | 190.91
278.57 K, Crystal 1 | 192.85
280 K, Crystal 1 | 194.5
280.46 K, Crystal 1 | 195.04
282.33 K, Crystal 1 | 197.11
284.2 K, Crystal 1 | 199.17
286.05 K, Crystal 1 | 201.41
287.9 K, Crystal 1 | 203.48
289.73 K, Crystal 1 | 205.72
290 K, Crystal 1 | 206
291.56 K, Crystal 1 | 207.85
293.37 K, Crystal 1 | 211.16
295.17 K, Crystal 1 | 213.27
298.15 K, Crystal 1 | 214.3
300 K, Crystal 1 | 216.4
310 K, Crystal 1 | 227.8
328.08 K, Liquid | 267.44
329.23 K, Liquid | 268.95
330 K, Liquid | 256.6
330.33 K, Liquid | 267.74
330.38 K, Liquid | 270.44
331.53 K, Liquid | 271.12
331.59 K, Liquid | 268.59
332.68 K, Liquid | 271.99
332.84 K, Liquid | 269.67
333.82 K, Liquid | 273.19
334.1 K, Liquid | 271.2
334.97 K, Liquid | 273.8
335.35 K, Liquid | 272.07
336.11 K, Liquid | 274.9
336.6 K, Liquid | 273.27
337.25 K, Liquid | 276.23
337.86 K, Liquid | 274.28
338.39 K, Liquid | 277.22
339.12 K, Liquid | 275.37
339.52 K, Liquid | 278.09
340 K, Liquid | 277.1
340.38 K, Liquid | 276.53
340.66 K, Liquid | 278.87
341.64 K, Liquid | 277.24
341.79 K, Liquid | 279.67
342.91 K, Liquid | 278.19
342.92 K, Liquid | 280.81
344.05 K, Liquid | 281.29
344.18 K, Liquid | 279.29
345.18 K, Liquid | 282
345.46 K, Liquid | 280.32
346.75 K, Liquid | 281.22
348.04 K, Liquid | 282.21
349.35 K, Liquid | 283.25
350 K, Liquid | 283.8
350.67 K, Liquid | 284.33
352.01 K, Liquid | 285.41
353.37 K, Liquid | 286.57
354.74 K, Liquid | 285.99
356.13 K, Liquid | 288.33
357.55 K, Liquid | 289.27
358.99 K, Liquid | 289.94
360 K, Liquid | 290.2
360.45 K, Liquid | 290.3
361.93 K, Liquid | 290.05
363.41 K, Liquid | 288.87
364.86 K, Liquid | 286.3
366.24 K, Liquid | 283
367.51 K, Liquid | 296.63
368.71 K, Liquid | 295.14
369.9 K, Liquid | 295.38
370 K, Liquid | 295.4
371.09 K, Liquid | 296.21
372.27 K, Liquid | 296.96
373.45 K, Liquid | 297.66
374.63 K, Liquid | 298.2
375.81 K, Liquid | 298.87
376.99 K, Liquid | 299.38
378.17 K, Liquid | 299.76
379.34 K, Liquid | 300.28
380.52 K, Liquid | 300.53
